In patent publication US8158587B2, “Compound having histone deacetylase-inhibiting activity, and pharmaceutical composition comprising the compound as an active ingredient” (Kyushu Institute of Technology, priority 2006, dated 2012):

How the values were obtained:
Assay in all cases: Human cancer cell line panel, proliferation (sulforhodamine B)
Format in all cases: cell-based
[1] = system: brain tumor cell line SF-295; details: SF-295, 2 days of cultivation; read-out: 50% inhibitory concentration, proliferation
[2] = system: colon cancer cell line KM-12; details: KM-12, 2 days of cultivation; read-out: 50% inhibitory concentration, proliferation
[3] = system: kidney cancer cell line ACHN; details: 2 days of cultivation, read-out: 50% inhibitory concentration, proliferation
[4] = system: ovarian cancer cell line SK-OV-3; details: SK-OV-3, 2 days of cultivation; read-out: 50% inhibitory concentration, proliferation

Measured: IC50

CC(=O)CSCCCCC[C@@H]1NC(=O)[C@H]2CCCN2C(=O)[C@H](Cc2ccccc2)NC(=O)C(C)(C)NC1=O [Ky-72, cyclo(-L-Am7(acetonyl)-Aib-L-Phe-D-Pro-)]
≤ 0.1 µM: all assays above
